Test results from the supplement of paper PMC10307832.

Tests used:
Experiment in all cases: relative viability (nuclei count vs DMSO), 5 days (fraction); higher = more cells survive
[1] = compound: COC1=CC=C(C=C1)CN2C=CC3=C2C=C(C=C3)C(=O)NO + Nc1ncn([C@H]2C[C@H](O)[C@@H](CO)O2)c(=O)n1 [Decitabine] (partner 2 µM)
Method in brief: (§1)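 Lung cancer cell lines in 1536-well plates were dosed by pin tool the day after seeding, either with one drug alone or with a fixed anchor-drug dose plus five library-drug doses (not always all listed) in √10 steps. After 5 days, cells were fixed and their nuclei stained in one step (final 0.05% Triton X-100, 1% formaldehyde, 1 ug/ml Hoechst), then counted on 4× images. Relative viability is the nuclei count in treated wells divided by that in vehicle wells. Values are medians of duplicate plates.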

Veliparib + Alpelisib = compound: C[C@]1(c2nc3c(C(N)=O)cccc3[nH]2)CCCN1 [Veliparib] + Cc1nc(NC(=O)N2CCC[C@H]2C(N)=O)sc1-c1ccnc(C(C)(C)C(F)(F)F)c1 [Alpelisib] (partner 2 µM)
Method in brief: as §1

[2] = compound: COC1=CC=C(C=C1)CN2C=CC3=C2C=C(C=C3)C(=O)NO + O=C(CCCCCCC(=O)Nc1ccccc1)NO [Vorinostat] (partner 1 µM)
Method in brief: as §1

Veliparib + Lapatinib = compound: C[C@]1(c2nc3c(C(N)=O)cccc3[nH]2)CCCN1 [Veliparib] + CS(=O)(=O)CCNCc1ccc(-c2ccc3ncnc(Nc4ccc(OCc5cccc(F)c5)c(Cl)c4)c3c2)o1 [Lapatinib] (partner 2 µM)
Method in brief: as §1

| Cell Line | relative viability ([1]; first compound 0.08 µM) | relative viability ([1]; first compound 0.253 µM) | relative viability ([1]; first compound 0.8 µM) | relative viability ([1]; first compound 2.53 µM) | relative viability ([1]; first compound 8 µM) | relative viability (Veliparib + Alpelisib; first compound 0.02 µM) | relative viability (Veliparib + Alpelisib; first compound 0.06325 µM) | relative viability (Veliparib + Alpelisib; first compound 0.2 µM) | relative viability (Veliparib + Alpelisib; first compound 0.6325 µM) | relative viability (Veliparib + Alpelisib; first compound 2 µM) | relative viability ([2]; first compound 0.08 µM) | relative viability ([2]; first compound 0.253 µM) | relative viability ([2]; first compound 0.8 µM) | relative viability ([2]; first compound 2.53 µM) | relative viability ([2]; first compound 8 µM) | relative viability (Veliparib + Lapatinib; first compound 0.02 µM) | relative viability (Veliparib + Lapatinib; first compound 0.06325 µM) | relative viability (Veliparib + Lapatinib; first compound 0.2 µM) | relative viability (Veliparib + Lapatinib; first compound 0.6325 µM) | relative viability (Veliparib + Lapatinib; first compound 2 µM) |
| --- | --- | --- | --- | --- | --- | --- | --- | --- | --- | --- | --- | --- | --- | --- | --- | --- | --- | --- | --- | --- |
| 201T | 0.843 | 0.867 | 0.856 | 0.863 | 0.817 | 1.02 | 1.02 | 1.02 | 1.01 | 0.973 | 0.813 | 0.952 | 0.967 | 0.986 | 0.868 | 1 | 1.03 | 1.04 | 1.05 | 0.995 |
| A549 | 0.187 | 0.264 | 0.286 | 0.235 | 0.374 | 0.697 | 0.686 | 0.75 | 0.688 | 0.796 | – | – | – | – | – | 1.12 | 0.93 | 0.978 | 0.869 | 0.957 |
| A-427 | 0.263 | – | 0.554 | 0.584 | 0.5 | 1.1 | 1.01 | 1.06 | 1.06 | 1.14 | 0.694 | – | 0.826 | 0.847 | 0.794 | 1.11 | 1 | 0.994 | 1.04 | 0.802 |
| ABC-1 | – | 1.16 | 1.21 | 1.21 | 0.929 | – | 0.809 | 1.1 | 1.05 | 0.894 | – | 0.517 | 1.13 | 0.973 | 1.02 | – | 1.17 | 1.18 | 0.878 | 1.1 |
| BEN | 0.677 | 0.726 | 0.702 | 0.664 | 0.618 | 0.925 | 0.982 | 1.2 | 0.992 | 1.05 | 0.566 | 0.566 | 0.591 | 0.543 | 0.548 | 0.445 | 0.72 | 0.777 | 0.824 | 0.81 |
| CAL-12T | – | – | – | – | – | 1.23 | 1.05 | 1.4 | 1.12 | 1.24 | 0.562 | 0.855 | 0.821 | 0.719 | 0.787 | 0.649 | 0.706 | 0.647 | 0.593 | 0.781 |
| COR-L23 | 0.378 | 0.465 | 0.456 | 0.407 | 0.357 | 0.784 | 0.733 | 0.874 | 0.597 | 0.786 | 0.273 | 0.456 | 0.455 | 0.518 | 0.502 | 0.795 | 0.81 | 0.802 | 0.982 | 0.978 |
| COR-L 105 | 0.515 | 0.618 | 0.752 | 0.601 | 0.604 | 1.12 | 1.1 | 1.09 | 0.862 | 1.11 | 0.489 | 0.802 | 0.828 | 0.815 | 0.63 | 0.35 | 0.371 | 0.327 | 0.362 | 0.388 |
| Calu-6 | – | – | – | – | – | 1.15 | 0.909 | 1.01 | 0.988 | 1.02 | – | – | – | – | – | 1.14 | 0.985 | 0.96 | 0.971 | 0.989 |
| ChaGo-K-1 | – | 0.502 | 0.526 | 0.525 | 0.488 | – | – | – | – | – | – | 0.837 | 0.772 | 0.706 | 0.558 | – | – | – | – | – |
| EBC-1 | – | – | – | – | – | 0.882 | 0.77 | 0.849 | 0.654 | 0.858 | – | – | – | – | – | 0.205 | 0.21 | 0.208 | 0.201 | 0.244 |
| EKVX | – | 0.327 | 0.378 | 0.372 | 0.415 | 0.784 | 0.867 | 0.85 | 0.837 | 0.902 | 0.646 | 0.843 | 0.803 | 0.897 | 0.672 | 0.19 | 0.203 | 0.217 | 0.201 | 0.231 |
| EMC-BAC-2 | 0.606 | – | 1.02 | 0.968 | 0.876 | 0.783 | 0.746 | 0.74 | 0.682 | 0.739 | 0.257 | – | 0.568 | 0.429 | 0.36 | 0.863 | 0.85 | 0.867 | 0.86 | 0.884 |
| EPLC-272H | – | 0.407 | 0.385 | 0.457 | 0.378 | – | 0.951 | 1.1 | 0.901 | 0.924 | – | 0.619 | 0.55 | 0.404 | 0.3 | – | 0.71 | 0.988 | 1.1 | 0.877 |
| H3255 | 0.565 | 0.551 | 0.627 | 0.55 | 0.567 | 0.656 | 0.841 | 0.679 | 0.522 | 0.701 | 0.34 | 0.739 | 0.842 | 0.849 | 0.731 | 0.227 | 0.209 | 0.27 | 0.289 | 0.261 |
| HARA | – | 0.493 | 0.6 | 0.587 | 0.534 | 0.943 | 0.769 | 0.921 | 0.827 | 0.822 | – | 0.6 | 0.484 | 0.677 | 0.59 | 0.748 | 0.57 | 0.86 | 0.743 | 0.853 |
| HCC-15 | 0.529 | 0.718 | 0.742 | 0.714 | 0.642 | 0.842 | 0.905 | 0.863 | 0.839 | 0.902 | 0.544 | 0.951 | 0.828 | 0.926 | 0.754 | 0.706 | 0.893 | 0.779 | 0.849 | 0.891 |
| HCC-44 | 0.943 | 0.992 | 0.974 | 0.988 | 0.881 | 0.807 | 0.648 | 0.844 | 0.762 | 0.803 | 1.09 | 1.06 | 1.18 | 1.14 | 1.12 | 0.986 | 0.85 | 1.01 | 0.933 | 1.07 |
| HCC-78 | 0.768 | 0.643 | 0.74 | 0.702 | 0.521 | 0.455 | 0.406 | 0.387 | 0.36 | 0.322 | 0.403 | 0.484 | 0.431 | 0.523 | 0.411 | 0.762 | 0.837 | 0.652 | 0.849 | 0.566 |
